In ChEMBL document CHEMBL2434930, “Design, synthesis and biological evaluation of novel anti-cytokine 1,2,4-triazine derivatives” (Bioorg Med Chem, 2013):
The source made the active and inactive calls. The calls are words filed in the database; no cut-off is given here.

Columns and labels:
PBMC [1] = experiment: Antiinflammatory activity in human PBMC assessed as inhibition of LPS-induced IL1-beta production at 10 uM treated 30 mins before LPS challenge measured after 6 hrs by ELISA; assay type: functional
PBMC [2] = experiment: Antiinflammatory activity in human PBMC assessed as inhibition of LPS-induced TNFalpha production at 10 uM treated 30 mins before LPS challenge measured after 6 hrs by ELISA; assay type: functional
PBMC [3] = experiment: Cytotoxicity against human PBMC assessed as cell viability at 10 to 20 uM by MTT assay; assay type: cell-based
MCF7 = experiment: Cytotoxicity against human MCF7 cells assessed as cell viability at 10 to 20 uM by MTT assay; assay type: cell-based; conditions: mcf7, 20 µM
[4] = target: T1, MAP kinase p38 (Homo sapiens) (UniProt O15264+Q15759+Q16539+P53778); experiment: Inhibition of etoposide-induced p38 MAPK activation in human MCF7 cells assessed as phosphorylated ATF-2 level at 20 uM treated 30 mins before etoposide challenge measured after 3 hrs by Western blot analysis; assay type: cell-based
Rattus norvegicus [5] = experiment: Antiinflammatory activity in rat assessed as inhibition of carrageenan-induced paw edema at 10 mg/kg, ip administered 1 hr before carrageenan challenge measured at 3 hrs relative to control; assay type: functional; conditions: route intraperitoneal
[6] = target: T1, MAP kinase p38 (Homo sapiens); experiment: Inhibition of etoposide-induced p38 MAPK activation in human MCF7 cells at 20 uM treated 30 mins before etoposide challenge measured after 3 hrs by Western blot analysis; assay type: cell-based
Rattus norvegicus [7] = experiment: Antiinflammatory activity in rat assessed as inhibition of carrageenan-induced paw edema at 10 mg/kg, ip administered 1 hr before carrageenan challenge measured at 4 hrs relative to control; assay type: functional; conditions: route intraperitoneal
Rattus norvegicus [8] = experiment: Antiinflammatory activity in rat assessed as inhibition of carrageenan-induced paw edema at 10 mg/kg, ip administered 1 hr before carrageenan challenge measured at 2 hrs relative to control; assay type: functional; conditions: route intraperitoneal
Rattus norvegicus [9] = experiment: Antiinflammatory activity in rat assessed as inhibition of carrageenan-induced paw edema at 10 mg/kg, ip administered 1 hr before carrageenan challenge measured at 1 hr relative to control; assay type: functional; conditions: route intraperitoneal
Rattus norvegicus [10] = experiment: Antiinflammatory activity in rat assessed as inhibition of carrageenan-induced paw edema at 50 mg/kg, ip administered 1 hr before carrageenan challenge measured at 3 hrs relative to control; assay type: functional; conditions: route intraperitoneal
Rattus norvegicus [11] = experiment: Antiinflammatory activity in rat assessed as inhibition of carrageenan-induced paw edema at 50 mg/kg, ip administered 1 hr before carrageenan challenge measured at 2 hrs relative to control; assay type: functional; conditions: route intraperitoneal
Rattus norvegicus [12] = experiment: Antiinflammatory activity in rat assessed as inhibition of carrageenan-induced paw edema at 50 mg/kg, ip administered 1 hr before carrageenan challenge measured at 1 hr relative to control; assay type: functional; conditions: route intraperitoneal
Rattus norvegicus [13] = experiment: Antiinflammatory activity in rat assessed as inhibition of carrageenan-induced paw edema at 50 mg/kg, ip administered 1 hr before carrageenan challenge measured at 4 hrs relative to control; assay type: functional; conditions: route intraperitoneal

| SMILES | inhibition at 10 µM (PBMC [1]) | inhibition at 10 µM (PBMC [2]) | Activity (PBMC [3]) | Activity (MCF7) | further results |
| --- | --- | --- | --- | --- | --- |
| COc1ccc(-c2nnc(N/N=C/c3ccc(OC)c(OC)c3)nc2-c2ccc(OC)cc2)cc1 | 39.9% | 45% | Non-toxic | Non-toxic | – |
| COc1ccc(/C=N/Nc2nnc(-c3ccc(OC)cc3)c(-c3ccc(OC)cc3)n2)cc1 | 35.9% | 48.5% | Non-toxic | Non-toxic | – |
| COc1ccc(-c2nnc(N/N=C/c3cccs3)nc2-c2ccc(OC)cc2)cc1 | 81.8% | 57.5% | Non-toxic | Non-toxic | – |
| COc1ccc(-c2nnc(N/N=C/c3cccc(O)c3O)nc2-c2ccc(OC)cc2)cc1 | 78.2% | 46.7% | Non-toxic | Non-toxic | – |
| COc1ccc(-c2nnc(N/N=C/c3ccc(O)cc3O)nc2-c2ccc(OC)cc2)cc1 | 51.8% | 32.7% | Non-toxic | Non-toxic | – |
| COc1ccc(-c2nnc(N/N=C/c3cccc(OC)c3OC)nc2-c2ccc(OC)cc2)cc1 | 89.8% | 71.8% | Non-toxic | Non-toxic | inhibition [4]: Active; inhibition in vivo at 10 mg/kg (Rattus norvegicus [5]): 64.2%; inhibition [6]: inactive; inhibition in vivo at 10 mg/kg (Rattus norvegicus [7]): 75.6%; inhibition in vivo at 10 mg/kg (Rattus norvegicus [8]): 45.3%; inhibition in vivo at 10 mg/kg (Rattus norvegicus [9]): 38.8% |
| COc1ccc(-c2nnc(N/N=C/c3ccc(Cl)cc3Cl)nc2-c2ccc(OC)cc2)cc1 | 86.9% | 70% | Non-toxic | Non-toxic | – |
| Oc1ccc(-c2nc(-c3ccc(F)cc3)c(-c3ccncc3)[nH]2)cc1 [SB-202190] | 93.4% | 87.2% | – | – | – |
| COc1ccc(-c2nnc(N/N=C/c3ccccc3)nc2-c2ccc(OC)cc2)cc1 | 71.5% | 53.1% | Non-toxic | Non-toxic | – |
| COc1ccc2c(c1)c(CC(=O)O)c(C)n2C(=O)c1ccc(Cl)cc1 [INDOMETHACIN] | – | – | – | – | inhibition in vivo at 50 mg/kg (Rattus norvegicus [10]): 48.2%; inhibition in vivo at 50 mg/kg (Rattus norvegicus [11]): 28.4%; inhibition in vivo at 50 mg/kg (Rattus norvegicus [12]): 19.2%; inhibition in vivo at 50 mg/kg (Rattus norvegicus [13]): 68.2% |
| COc1ccc(-c2nnc(N/N=C/c3ccc(F)cc3)nc2-c2ccc(OC)cc2)cc1 | 27.9% | 34.5% | Non-toxic | Non-toxic | – |
| COc1ccc(-c2nnc(N/N=C/c3ccc4c(c3)OCO4)nc2-c2ccc(OC)cc2)cc1 | 86.9% | 52.2% | Non-toxic | Non-toxic | – |
| COc1ccc(-c2nnc(N/N=C/c3ccncc3)nc2-c2ccc(OC)cc2)cc1 | 60.8% | 41.8% | Non-toxic | Non-toxic | – |
| COc1ccc(-c2nnc(N/N=C/c3c(Cl)cccc3[N+](=O)[O-])nc2-c2ccc(OC)cc2)cc1 | 2.81% | 47.9% | Non-toxic | Non-toxic | – |
| COc1ccc(-c2nnc(N/N=C/c3cc4ccccc4[nH]3)nc2-c2ccc(OC)cc2)cc1 | 82.3% | 53.3% | Non-toxic | Non-toxic | – |
| COc1ccc(-c2nnc(N/N=C/c3ccc([N+](=O)[O-])cc3)nc2-c2ccc(OC)cc2)cc1 | 15.5% | 37.6% | Non-toxic | Non-toxic | – |
| COc1ccc(-c2nnc(N/N=C/c3ccc(O)c(OC)c3)nc2-c2ccc(OC)cc2)cc1 | 84.3% | 46.1% | Non-toxic | Non-toxic | – |
| COc1ccc(-c2nnc(N/N=C/c3ccco3)nc2-c2ccc(OC)cc2)cc1 | 84% | 71.1% | Non-toxic | Non-toxic | – |
